This passage reports inhibition and inhibition in vivo results from US5270308A, “1,3-benzoxazine derivatives, their production and use” (Takeda Chemical Industries, Ltd., priority 1990, dated 1993).

The subject of assay [1] is Rat Aorta Sample (constriction by KCl). Description: Vasorelaxation activity in rat aorta sample: effect on constriction caused by potassium chloride (KCl). The assay is classed as cell-based, Male Wister rats. Conditions: KCl (80 mM), rat aorta ring, read-out: constriction inhibitory ratio (%). The method, then: (§1) Vasorelaxation Activity in Rat Aorta Sample
Effect on Relaxation Caused by Potassium Chloride (KCl)
Method: According to the same manner as that described in Experiment 1, this experiment was carried out except that KCl (80 mM) was used instead of TEA and Ba.
Result: The results are shown in Table 4 in terms of the inhibitory ratio of the test compound.

Assay [2] relates to Rat Aorta Sample (constriction by TEA and Ba). As to the kind of experiment: Vasorelaxation activity in rat aorta sample: effect on constriction caused by tetraethylammonium chloride (TEA) and barium chloride (Ba). The assay is classed as cell-based, Male Wister rats. As to conditions: TEA (30 to 45 mM) and Ba (0.3 mM), rat aorta ring, read-out: constriction inhibitory ratio (%). The method, then: as §1
Effect on Relaxation Caused by Tetraethylammonium Chloride (TEA) and Barium Chloride (Ba)
Method: Male Wister rats (10 to 13 weeks old) were used for the experiment. After dehematization, the aorta was excised and a ring sample (5 mm) was prepared. The sample was suspended in a bath filled with oxygenated (95% O2 -5% CO2) Krebs solution (36° C.). The ring sample was fixed at one end and the other end was connected to a transducer (Nippon Koden, Japan) for recording tension and the tension was measured. After a stabilization period of 1 hour, TEA (30 to 45 mM) and Ba (0.3 mM) were added to the bath to cause vasoconstriction. After the constriction has reached a steady state (after about 15 minutes), a test compound was added to the bath and its relaxation activity was measured.
Result: The results are shown in Table 3 in terms of the inhibitory ratio of the test compound.

Assay [3] has as its system spontaneously hypertensive rat. As to the kind of experiment: Hypotensive activity in spontaneously hypertensive rats. The assay is classed as in vivo. Conditions: po, orally, conscious spontaneously hypertensive rat, male, 20 to 23 weeks old, read-out: maximum effect (%) (mean ratio of maximum decrease in the blood pressure). The method, then:
Hypotensive Activity in Rats
Method: A spontaneously hypertensive rat (male, 20 to 23 weeks old) was operated in advance for retaining a cannula for blood pressure measurement in the left femoral artery. The experiment was carried out for the rat when waking on the next day after the operation. The cannula was connected with a transducer (Specrtramed) upon the experiment and the blood pressure was measured (Nippon Koden, Japan). A test compound was suspended in gum arabic and the suspension was administered orally.

With `CC1(C)N=C(c2cccc[n+]2[O-])c2cc(C#N)ccc2O1` [Compound 20, 2-(6-cyano-2,2-dimethyl-2H-1,3-benzoxazin-4-yl)pyridine N-oxide], in assay [1], the inhibition at 3 µM was -4% and the inhibition at 10 µM is -2%. Besides, in assay [2], the inhibition at 3 µM was 35% and the inhibition at 10 µM is 81%. Further, the inhibition in vivo at 1 mg/kg in assay [3] was 39%.
`CC1(C)N=C(c2cccc[n+]2[O-])c2cc(Br)ccc2O1` [Compound 23, 2-(6-bromo-2,2-dimethyl-2H-1,3-benzoxazin-4-yl)pyridine N-oxide]: in assay [1], the inhibition at 1 µM is -1%, the inhibition at 3 µM is 1% and the inhibition at 10 µM was 4%. In assay [2], the inhibition at 1 µM is 19%, the inhibition at 3 µM stood at 82% and the inhibition at 10 µM came out at 100%. Besides, the inhibition in vivo at 1 mg/kg in assay [3] came to 32%.
Take `CC1(C)N=C(c2cccc[n+]2[O-])c2cc(Cl)ccc2O1` [Compound 24, 2-(6-chloro-2,2-dimethyl-2H-1,3-benzoxazin-4-yl)pyridine N-oxide]: the inhibition at 10 µM in assay [1] is -11%. Further, in assay [2], the inhibition at 3 µM was 76% and the inhibition at 10 µM is 94%. Also, the inhibition in vivo at 1 mg/kg in assay [3] turned out to be 38%.
For the compound `CC1(C)N=C(c2cccc[n+]2[O-])c2cc([N+](=O)[O-])ccc2O1` [Compound 29, 2-(2,2-dimethyl-6-nitro-2H-1,3-benzoxazin-4-yl)pyridine N-oxide], the inhibition at 1 µM in assay [1] was -8%; in assay [2], 74%. Besides, in assay [3], the inhibition in vivo at 1 mg/kg was determined as 61%.
Take `CCOc1ccc[n+]([O-])c1C1=NC(C)(C)Oc2ccc(C#N)cc21` [Compound 38, 2-(6-cyano-2,2-dimethyl-2H-1,3-benzoxazin-4-yl)-3-ethoxypyridine N-oxide]: in assay [3], the inhibition in vivo at 1 mg/kg was found to be 58%.
Regarding `Cc1cc2c(cc1Br)C(c1cccc[n+]1[O-])=NC(C)(C)O2` [Compound 47, 2-(6-bromo-2,2,7-trimethyl-2H-1,3-benzoxazin-4-yl)pyridine N-oxide], the inhibition at 1 µM in assay [1] is -1%; in assay [2], 72%. Further, the inhibition at 3 µM in assay [1] turned out to be 2%; in assay [2] it was 100%.
As for `Cc1cc2c(cc1[N+](=O)[O-])C(c1cccc[n+]1[O-])=NC(C)(C)O2` [Compound 49, 2-(2,2,7-trimethyl-6-nitro-2H-1,3-benzoxazin-4-yl)pyridine N-oxide], in assay [1], the inhibition at 1 µM is -7%, the inhibition at 3 µM was -6% and the inhibition at 10 µM is -3%. Moreover, in assay [2], the inhibition at 1 µM turned out to be 28%, the inhibition at 3 µM was found to be 77% and the inhibition at 10 µM came out at 86%.
On to `C#Cc1ccc2c(c1)C(c1cccc[n+]1[O-])=NC(C)(C)O2` [Compound 53, 2-(6-ethynyl-2,2-dimethyl-2H-1,3-benzoxazin-4-yl)pyridine N-oxide], for which the inhibition at 10 µM in assay [1] is -4%; in assay [2] it was 89%.
With `CC(=O)c1ccc2c(c1)C(c1cccc[n+]1[O-])=NC(C)(C)O2` [Compound 56, 2-(6-acetyl-2,2-dimethyl-2H-1,3-benzoxazin-4-yl)pyridine N-oxide], the inhibition in vivo at 1 mg/kg in assay [3] is 22%.
For the compound `Cc1cc2c(cc1C#N)C(c1cccc[n+]1[O-])=NC(C)(C)O2` [Compound 65, 2-(6-cyano-2,2,7-trimethyl-2H-1,3-benzoxazin-4-yl)pyridine N-oxide], in assay [1], the inhibition at 3 µM is -2% and the inhibition at 10 µM was determined as 0%. In addition, in assay [2], the inhibition at 3 µM came out at 48% and the inhibition at 10 µM was 74%.
For the compound `CC1(C)N=C(c2cccc[n+]2[O-])c2cc(OC(F)(F)F)ccc2O1` [Compound 69, 2-(6-trifluoromethoxy-2,2-dimethyl-2H-1,3-benzoxazin-4-yl)pyridine N-oxide], in assay [1], the inhibition at 3 µM was -1% and the inhibition at 10 µM was determined as 2%. For the same compound, in assay [2], the inhibition at 3 µM was 45% and the inhibition at 10 µM is 81%. Also, the inhibition in vivo at 1 mg/kg in assay [3] worked out at 44%.
For `CC1(C)N=C(c2cccc[n+]2[O-])c2cc(C#N)c(Cl)cc2O1` [Compound 91, 2-(7-chloro-6-cyano-2,2-dimethyl-2H-1,3-benzoxazin-4-yl)pyridine N-oxide], the inhibition in vivo at 1 mg/kg in assay [3] is 39%.
In the case of `CC1(C)N=C(c2cccc[n+]2[O-])c2cc(Br)c(Br)cc2O1` [Compound 93, 2-(6,7-dibromo-2,2-dimethyl-2H-1,3-benzoxazin-4-yl)pyridine N-oxide], in assay [2], the inhibition at 1 µM is 52% and the inhibition at 3 µM stood at 71%. The inhibition in vivo at 1 mg/kg in assay [3] is 22%.
`CC1(C)N=C(c2cccc[n+]2[O-])c2cc(Br)c(F)cc2O1` [Compound 95, 2-(6-bromo-7-fluoro-2,2-dimethyl-2H-1,3-benzoxazin-4-yl)pyridine N-oxide]: the inhibition in vivo at 1 mg/kg in assay [3] stood at 55%.
As to `CC1(C)N=C(c2cccnc2)c2cc(Br)ccc2O1` [Compound 98], in assay [1], the inhibition at 1 µM is -4% and the inhibition at 3 µM is -6%.
With `CCOc1ccc[n+]([O-])c1C1=NC(C)(C)Oc2cc(Cl)c(Br)cc21` [Compound 117, 2-(6-bromo-7-chloro-2,2-dimethyl-2H-1,3-benzoxazin-4-yl)-3-ethoxypyridine N-oxide], the inhibition in vivo at 1 mg/kg in assay [3] is 54%.
On the same count and under the same terms, the same measure for `COc1ccc[n+]([O-])c1C1=NC(C)(C)Oc2ccc(C(F)(F)F)cc21` [Compound 118, 2-(6-trifluoromethyl-2,2-dimethyl-2H-1,3-benzoxazin-4-yl)-3-methoxypyridineN-oxide]: 43%; for `CCOc1ccc[n+]([O-])c1C1=NC(C)(C)Oc2ccc(Br)cc21` [Compound 119, 2-(6-bromo-2,2-dimethyl-2H-1,3-benzoxazin-4-yl)-3-ethoxypyridine N-oxide]: 61%; for `CCOc1ccc[n+]([O-])c1C1=NC(C)(C)Oc2ccc(C(F)(F)F)cc21` [Compound 124, 3-ethoxy-2-(6-trifluoromethyl-2,2-dimethyl-2H-1,3-benzoxazin-4-yl)pyridine N-oxide]: 48%.
Same read-out and setting: next, `COc1ccc[n+]([O-])c1C1=NC(C)(C)Oc2ccc(C#N)cc21` [Compound 125, 2-(6-cyano-2,2-dimethyl-2H-1,3-benzoxazin-4-yl)-3-methoxypyridine N-oxide]: 23%; `COc1ccc[n+]([O-])c1C1=NC(C)(C)Oc2cc(Cl)c(Br)cc21` [Compound 126, 2-(6-bromo-7-chloro-2,2-dimethyl-2H-1,3-benzoxazin-4-yl)-3-methoxypyridine N-oxide]: 49%; `COc1ccc[n+]([O-])c1C1=NC(C)(C)Oc2ccc(Br)cc21` [Compound 129, 2-(6-bromo-2,2-dimethyl-2H-1,3-benzoxazin-4-yl)-3-methoxypyridine N-oxide]: 55%.
On the same count and under the same terms, next, `CC1(C)N=C(c2c(O)ccc[n+]2[O-])c2cc(Br)ccc2O1` [Compound 143, 2-(6-bromo-2,2-dimethyl-2H-1,3-benzoxadin-4-yl)-3-hydroxypyridine N-oxide]: 54%.
